Laboratory results: PubChem BioAssay AID1918935 (Molecular Pharmacology Branch, DTP, NCI, 2023)

Test system: 324938-238-R-J1-PDC complex spheroid viability
Test: Anticancer human tumor 324938-238-R-J1-PDC patient-derived bladder carcinoma cell line growth inhibition
Details: for IC50: curve of first compound; for viability, T/C: stronger effect = lower value
How it was run: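 Complex spheroids of tumor cells with HUVEC and human MSCs, exposed to iadademstat combined with other agents. Each agent tested in half-log steps from near clinical Cmax (else 10 microM top), DMSO ≤0.25%.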

[1] = second compound 0.1 µM, first compound 0.00949 µM
[2] = second compound 0.1 µM, first compound 0.03 µM
[3] = second compound 0.1 µM, first compound 0.0949 µM
[4] = second compound 0.1 µM, first compound 0.3 µM
[5] = second compound 0.316 µM, first compound 0.00949 µM
[6] = second compound 0.316 µM, first compound 0.03 µM
[7] = second compound 0.316 µM, first compound 0.0949 µM
[8] = second compound 0.316 µM, first compound 0.3 µM
[9] = second compound 1 µM, first compound 0.00949 µM
[10] = second compound 1 µM, first compound 0.03 µM
[11] = second compound 1 µM, first compound 0.0949 µM
[12] = second compound 1 µM, first compound 0.3 µM
[13] = second compound 3.16 µM, first compound 0.00949 µM
[14] = second compound 3.16 µM, first compound 0.03 µM
[15] = second compound 3.16 µM, first compound 0.0949 µM
[16] = second compound 3.16 µM, first compound 0.3 µM
[17] = second compound 10 µM, first compound 0.00949 µM
[18] = second compound 10 µM, first compound 0.03 µM
[19] = second compound 10 µM, first compound 0.0949 µM
[20] = second compound 10 µM, first compound 0.3 µM
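Also: spheroids exposed to agents for 7 days before readout.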

Structure (SMILES) | IC50 (second compound 0.1 µM) [µM] | IC50 (second compound 0.316 µM) [µM] | IC50 (second compound 1 µM) [µM] | IC50 (second compound 3.16 µM) [µM] | IC50 (second compound 10 µM) [µM] | viability, T/C [1] [%] | viability, T/C [2] [%] | viability, T/C [3] [%] | viability, T/C [4] [%] | viability, T/C [5] [%] | viability, T/C [6] [%] | viability, T/C [7] [%] | viability, T/C [8] [%] | viability, T/C [9] [%] | viability, T/C [10] [%] | viability, T/C [11] [%] | viability, T/C [12] [%] | viability, T/C [13] [%] | viability, T/C [14] [%] | viability, T/C [15] [%] | also measured
CCN(c1cc(-c2ccc(CN3CCOCC3)cc2)cc(C(=O)NCc2c(C)cc(C)[nH]c2=O)c1C)C1CCOCC1 + NC1CC1c1ccc(-c2cccc(O)c2)cc1 | > 3 | > 3 | > 3 | > 3 | > 3 | 91.3 | 91.9 | 89.8 | 79.1 | 84.4 | 80.1 | 80.3 | 81.6 | 74.2 | 77.2 | 72.6 | 72.9 | 79 | 79.3 | 77.1 | viability, T/C (second compound 0.1 µM, first compound 0.949 µM): 89%; viability, T/C (second compound 0.1 µM, first compound 3 µM): 80.1%; viability, T/C (second compound 0.316 µM, first compound 0.949 µM): 85.1%; viability, T/C (second compound 0.316 µM, first compound 3 µM): 79.8%; viability, T/C (second compound 1 µM, first compound 0.949 µM): 76.9%; viability, T/C (second compound 1 µM, first compound 3 µM): 78.6%; viability, T/C [16]: 77.5%; viability, T/C (second compound 3.16 µM, first compound 0.949 µM): 76.6%; viability, T/C (second compound 3.16 µM, first compound 3 µM): 74.2%; viability, T/C [17]: 66.4%; viability, T/C [18]: 77%; viability, T/C [19]: 66.8%; viability, T/C [20]: 62.8%; viability, T/C (second compound 10 µM, first compound 0.949 µM): 66.5%; viability, T/C (second compound 10 µM, first compound 3 µM): 68.1%
Nc1ncn(C2CC(O)C(CO)S2)c(=O)n1 (stereo not given) + NC1CC1c1ccc(-c2cccc(O)c2)cc1 | 0.0164 | 0.0133 | 0.00837 | 0.0144 | 0.00928 | 58.1 | 37.9 | 26.6 | 16.9 | 54 | 36.9 | 29 | 16 | 48.4 | 38.1 | 28 | 16.8 | 55.2 | 41.1 | 32.2 | viability, T/C (second compound 0.1 µM, first compound 0.000949 µM): 84.5%; viability, T/C (second compound 0.1 µM, first compound 0.003 µM): 87.4%; viability, T/C (second compound 0.316 µM, first compound 0.000949 µM): 78.1%; viability, T/C (second compound 0.316 µM, first compound 0.003 µM): 70.5%; viability, T/C (second compound 1 µM, first compound 0.000949 µM): 63.4%; viability, T/C (second compound 1 µM, first compound 0.003 µM): 59.2%; viability, T/C (second compound 3.16 µM, first compound 0.000949 µM): 67.2%; viability, T/C (second compound 3.16 µM, first compound 0.003 µM): 62%; viability, T/C [16]: 17.5%; viability, T/C (second compound 10 µM, first compound 0.000949 µM): 62.9%; viability, T/C (second compound 10 µM, first compound 0.003 µM): 57.5%; viability, T/C [17]: 48.8%; viability, T/C [18]: 42.3%; viability, T/C [19]: 29.1%; viability, T/C [20]: 25%
